Target: T1, human GPR119 (Homo sapiens, UniProt Q8TDV5)
T1 construct: expression vector for human GPR119 cDNA (Acc. No. NP_848566); expressed in transfected cells; Min-6/hGPR119
T1 sequence (Q8TDV5 1-335): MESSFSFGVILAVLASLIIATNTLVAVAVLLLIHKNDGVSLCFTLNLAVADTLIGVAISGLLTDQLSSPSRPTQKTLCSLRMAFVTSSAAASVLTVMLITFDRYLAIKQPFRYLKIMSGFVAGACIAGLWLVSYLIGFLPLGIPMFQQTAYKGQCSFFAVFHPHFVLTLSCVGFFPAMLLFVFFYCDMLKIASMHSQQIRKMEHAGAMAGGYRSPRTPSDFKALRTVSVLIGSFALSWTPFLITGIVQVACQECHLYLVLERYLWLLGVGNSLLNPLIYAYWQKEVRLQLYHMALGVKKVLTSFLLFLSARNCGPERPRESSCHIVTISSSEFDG
Assay: AlphaScreen cAMP assay in MIN6 cells stably transfected with human GPR119
Assay type: cell-based
Conditions: Min-6/hGPR119 cells, 45 min at room temperature
In short: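 MIN6 cells stably expressing human GPR119, seeded 10000/well and grown 24 h, were exposed to compound in pH 7.4 buffer with 0.5 mM IBMX, 0.1% BSA and 1% DMSO for 45 min at room temperature. Intracellular cAMP then measured by AlphaScreen.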

| Compound | EC50 |
| --- | --- |
| COCC(C)N(C)C(=O)c1ccc(-c2ncc(C(=O)N(C3CC3)C3CCN(C(=O)OC(C)(C)C)CC3)cn2)cc1 (stereo not shown) [Example 172, 4-[Cyclopropyl-(2-{4-[(2-methoxy-1-methyl-ethyl)-methyl-carbamoyl]-phenyl}-pyrimidine-5-carbonyl)-amino]-piperidine-1-carboxylic acid tert-butyl ester] | 226 nM |
| COC(C)CN(C)C(=O)c1ccc(-c2ncc(C(=O)N(C3CC3)C3CCN(C(=O)OC(C)(C)C)CC3)cn2)cc1 (stereo not shown) [Example 173, 4-[Cyclopropyl-(2-{4-[(2-methoxy-propyl)-methyl-carbamoyl]-phenyl}-pyrimidine-5-carbonyl)-amino]-piperidine-1-carboxylic acid tert-butyl ester] | 234 nM |
| COc1ccc(NC(=O)c2ccc(-c3ncc(C(=O)N(C4CC4)C4CCN(C(=O)OC(C)(C)C)CC4)cn3)cc2)cn1 [Example 174, 4-(Cyclopropyl-{2-[4-(6-methoxy-pyridin-3-ylcarbamoyl)-phenyl]-pyrimidine-5-carbonyl}-amino)-piperidine-1-carboxylic acid tert-butyl ester] | 170 nM |
| CCOCCNC(=O)c1ccc(-c2ncc(C(=O)N(C3CC3)C3CCN(C(=O)OC(C)(C)C)CC3)cn2)cc1 [Example 175, 4-(Cyclopropyl-{2-[4-(2-ethoxy-ethylcarbamoyl)-phenyl]-pyrimidine-5-carbonyl}-amino)-piperidine-1-carboxylic acid tert-butyl ester] | 165 nM |
| CC(C)(C)OC(=O)N1CCC(N(C(=O)c2cnc(-c3ccc(C(=O)Nc4ccc(CO)cc4)cc3)nc2)C2CC2)CC1 [Example 176, 4-(Cyclopropyl-{2-[4-(4-hydroxymethyl-phenylcarbamoyl)-phenyl]-pyrimidine-5-carbonyl}-amino)-piperidine-1-carboxylic acid tert-butyl ester] | 346 nM |
| CN(CCC#N)C(=O)c1ccc(-c2ncc(C(=O)N(C3CC3)C3CCN(C(=O)OC(C)(C)C)CC3)cn2)cc1 [Example 177, 4-[(2-{4-[(2-Cyano-ethyl)-methyl-carbamoyl]-phenyl}-pyrimidine-5-carbonyl)-cyclopropyl-amino]-piperidine-1-carboxylic acid tert-butyl ester] | 456 nM |
| CC(C)(C)OC(=O)N1CCC(N(C(=O)c2cnc(-c3ccc(C(=O)N4CCCOCC4)cc3)nc2)C2CC2)CC1 [Example 178, 4-(Cyclopropyl-{2-[4-([1,4]oxazepane-4-carbonyl)-phenyl]-pyrimidine-5-carbonyl}-amino)-piperidine-1-carboxylic acid tert-butyl ester] | 237 nM |
| CO[C@@H]1CCN(C(=O)c2ccc(-c3ncc(C(=O)N(C4CC4)C4CCN(C(=O)OC(C)(C)C)CC4)cn3)cc2)C1 [Example 179, 4-(Cyclopropyl-{2-[4-(3-methoxy-pyrrolidine-1-carbonyl)-phenyl]-pyrimidine-5-carbonyl}-amino)-piperidine-1-carboxylic acid tert-butyl ester] | 338 nM |
| CC(C)(C)OC(=O)N1CCC(N(C(=O)c2cnc(-c3ccc(CC(=O)Nc4ccccc4)cc3)nc2)C2CC2)CC1 [Example 180, 4-{Cyclopropyl-[2-(4-phenylcarbamoylmethyl-phenyl)-pyrimidine-5-carbonyl]-amino}-piperidine-1-carboxylic acid tert-butyl ester] | 289 nM |
| COC1CCN(C(=O)c2ccc(-c3ncc(C(=O)N(C4CC4)C4CCN(C(=O)OC(C)(C)C)CC4)cn3)cc2)CC1 [Example 181, 4-(Cyclopropyl-{2-[4-(4-methoxy-piperidine-1-carbonyl)-phenyl]-pyrimidine-5-carbonyl}-amino)-piperidine-1-carboxylic acid tert-butyl ester] | 206 nM |
| COCC1CCCCN1C(=O)c1ccc(-c2ncc(C(=O)N(C3CC3)C3CCN(C(=O)OC(C)(C)C)CC3)cn2)cc1 (stereo not shown) [Example 182, 4-(Cyclopropyl-{2-[4-(2-methoxymethyl-piperidine-1-carbonyl)-phenyl]-pyrimidine-5-carbonyl}-amino)-piperidine-1-carboxylic acid tert-butyl ester] | 319 nM |
| CC(C)(C)OC(=O)N1CCC(N(C(=O)c2cnc(-c3ccc(C(=O)Nc4ccccc4)cc3)nc2)C2CC2)CC1 [Example 183, 4-{Cyclopropyl-[2-(4-phenylcarbamoyl-phenyl)-pyrimidine-5-carbonyl]-amino}-piperidine-1-carboxylic acid tert-butyl ester] | 63 nM |
| CC(C)(C)OC(=O)N1CCC(N(C(=O)c2cnc(-c3ccc(CC(=O)N4CC(F)(F)C4)cc3)nc2)C2CC2)CC1 [Example 184, 4-[Cyclopropyl-(2-{4-[2-(3,3-difluoro-azetidin-1-yl)-2-oxo-ethyl]-phenyl}-pyrimidine-5-carbonyl)-amino]-piperidine-1-carboxylic acid tert-butyl ester] | 149 nM |
| COCc1sc(NC(=O)c2ccc(-c3ncc(C(=O)N(C4CC4)C4CCN(C(=O)OC(C)(C)C)CC4)cn3)cc2)nc1C [Example 185, 4-(Cyclopropyl-{2-[4-(5-methoxymethyl-4-methyl-thiazol-2-ylcarbamoyl)-phenyl]-pyrimidine-5-carbonyl}-amino)-piperidine-1-carboxylic acid tert-butyl ester] | 390 nM |
| CN(CC1(C)COC1)C(=O)Cc1ccc(-c2ncc(C(=O)N(C3CC3)C3CCN(C(=O)OC(C)(C)C)CC3)cn2)cc1 [Example 186, 4-{Cyclopropyl-[2-(4-{[methyl-(3-methyl-oxetan-3-ylmethyl)-carbamoyl]-methyl}-phenyl)-pyrimidine-5-carbonyl]-amino}-piperidine-1-carboxylic acid tert-butyl ester] | 617 nM |
| CC(C)(C)OC(=O)N1CCC(N(C(=O)c2cnc(-c3ccc(C(=O)N4CC(F)(F)C4)cc3)nc2)C2CC2)CC1 [Example 187, 4-(Cyclopropyl-{2-[4-(3,3-difluoro-azetidine-1-carbonyl)-phenyl]-pyrimidine-5-carbonyl}-amino)-piperidine-1-carboxylic acid tert-butyl ester] | 122 nM |
| COc1ccc(NC(=O)Cc2ccc(-c3ncc(C(=O)N(C4CC4)C4CCN(C(=O)OC(C)(C)C)CC4)cn3)cc2)c(OC)c1 [Example 188, 4-[Cyclopropyl-(2-{4-[(2,4-dimethoxy-phenylcarbamoyl)-methyl]-phenyl}-pyrimidine-5-carbonyl)-amino]-piperidine-1-carboxylic acid tert-butyl ester] | 311 nM |
| CC(C)(C)OC(=O)N1CCC(N(C(=O)c2cnc(-c3ccc(CC(=O)NC[C@H]4CCCC[C@H]4O)cc3)nc2)C2CC2)CC1 [Example 189] | 434 nM |
| CC(C)(C)OC(=O)N1CCC(N(C(=O)c2cnc(-c3ccc(C(=O)N4CCCC(O)C4)cc3)nc2)C2CC2)CC1 (stereo not shown) [Example 190, 4-(Cyclopropyl-{2-[4-(3-hydroxy-piperidine-1-carbonyl)-phenyl]-pyrimidine-5-carbonyl}-amino)-piperidine-1-carboxylic acid tert-buyl ester] | 820 nM |
| CC(C)(C)OC(=O)N1CCC(N(C(=O)c2cnc(-c3ccc(CC(=O)NCCOC(F)(F)F)cc3)nc2)C2CC2)CC1 [Example 191, 4-[Cyclopropyl-(2-{4-[(2-trifluoromethoxy-ethylcarbamoyl)-methyl]-phenyl}-pyrimidine-5-carbonyl)-amino]-piperidine-1-carboxylic acid tert-butyl ester] | 420 nM |
| CC(C)(C)OC(=O)N1CCC(N(C(=O)c2cnc(-c3ccc(CC(=O)N4CCCOCC4)cc3)nc2)C2CC2)CC1 [Example 192, 4-(Cyclopropyl-{2-[4-(2-[1,4]oxazepan-4-yl-2-oxo-ethyl)-phenyl]-pyrimidine-5-carbonyl}-amino)-piperidine-1-carboxylic acid tert-butyl ester] | 421 nM |
| CN(CC1CCOCC1)C(=O)c1ccc(-c2ncc(C(=O)N(C3CC3)C3CCN(C(=O)OC(C)(C)C)CC3)cn2)cc1 [Example 193, 4-[Cyclopropyl-(2-{4-[methyl-(tetrahydro-pyran-4-ylmethyl)-carbamoyl]-phenyl}-pyrimidine-5-carbonyl)-amino]-piperidine-1-carboxylic acid tert-butyl ester] | 300 nM |
| CO[C@@H]1CCN(C(=O)Cc2ccc(-c3ncc(C(=O)N(C4CC4)C4CCN(C(=O)OC(C)(C)C)CC4)cn3)cc2)C1 [Example 194, 4-[Cyclopropyl-(2-{4-[2-(3-methoxy-pyrrolidin-1-yl)-2-oxo-ethyl]-phenyl}-pyrimidine-5-carbonyl)-amino]-piperidine-1-carboxylic acid tert-butyl ester] | 325 nM |
| COCCN(C)C(=O)Cc1ccc(-c2ncc(C(=O)N(C3CC3)C3CCN(C(=O)OC(C)(C)C)CC3)cn2)cc1 [Example 195, 4-{Cyclopropyl-[2-(4-{[(2-methoxy-ethyl)-methyl-carbamoyl]-methyl}-phenyl)-pyrimidine-5-carbonyl]-amino}-piperidine-1-carboxylic acid tert-butyl ester] | 486 nM |
| COCCN(C)C(=O)c1ccc(-c2ncc(C(=O)N(C3CC3)C3CCN(C(=O)OC(C)(C)C)CC3)cn2)cc1 [Example 196, 4-[Cyclopropyl-(2-{4-[(2-methoxy-ethyl)-methyl-carbamoyl]-phenyl}-pyrimidine-5-carbonyl)-amino]-piperidine-1-carboxylic acid tert-butyl ester] | 215 nM |

Reference: US20140045823A1 (Neurocrine Biosciences, Inc., priority 2012, published 2014)
